Values of other authors in patent publication US20060275215A1, “Novel imaging agents” (priority 2003, published 2006).

Key:
[1] = test system: phosphatidylserine (PS) on the outer membrane of apoptotic cells; conditions: binding to phosphatidylserine on outer membrane of apoptotic cells; read-out: affinity
caspase-3 = biological target: T1, caspase-3 (Homo sapiens, UniProt P42574)
T1 sequence (P42574 29-175 limits assumed): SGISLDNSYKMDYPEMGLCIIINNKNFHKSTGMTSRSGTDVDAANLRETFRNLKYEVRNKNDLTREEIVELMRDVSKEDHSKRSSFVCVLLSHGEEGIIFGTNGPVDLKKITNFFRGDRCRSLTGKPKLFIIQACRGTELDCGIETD
T1 sequence (P42574 176-277 limits assumed): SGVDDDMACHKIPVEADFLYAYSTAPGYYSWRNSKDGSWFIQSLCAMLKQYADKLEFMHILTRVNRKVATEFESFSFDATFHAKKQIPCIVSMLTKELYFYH

[2] = labelled with the radioisotope 131I

IC50 for caspase-3 (caspase-3)	Compound	further results
low nanomolar range	CCOc1ccc(OCC(=O)OC(C)C)cc1CC(=O)NC(C(=O)NC(CC(=O)O)C(=O)CSCc1c(F)cccc1Cl)C(C)C (stereo not drawn) [Compound 6B]	
low nanomolar range	CCOc1ccc(S(C)(=O)=O)cc1CC(=O)NC(C(=O)NC(CC(=O)O)C(=O)CSCc1c(F)cccc1Cl)C(C)C (stereo not drawn) [Compound 6C]	
low nanomolar range	CCOc1ccc(OCC(=O)OC)cc1CC(=O)NC(C(=O)NC(CC(=O)O)C(=O)CSCc1c(F)cccc1Cl)C(C)C (stereo not drawn) [Compound 6A]	

The next lines start with the compound.

Compound	IC50 for caspase-3 (caspase-3)	further results
Annexin-5: endogenous human protein (RMM 36 kDa) which binds to phosphatidylserine		Kd [1]: ~1 nM
CCOc1ccc(OCC(=O)O)cc1CC(=O)NC(C(=O)NC(CC(=O)O)C(=O)CSCc1c(F)cccc1Cl)C(C)C (stereo not drawn) [6A′]	low nanomolar range	
benzyloxycarbonyl-Val-Ala-DL-Asp(O-methyl)-fluoromethylketone [Z-VAD-fmk]		absolute cellular uptake [2]: low
